Experimental data reported in patent publication US4835185A, “Immunomodulator for improving commercial performance of domestic animals” (Iowa State University Research Foundation, Inc., priority 1987, dated 1989).
Read-outs that look alike come from different tables or passages of the source.

Assays:
plasma cortisol = experiment: Plasma cortisol in pigs after test meals; format: in vivo
Procedure: To determine if KIC could acutely alter cortisol concentrations, young pigs were fed meals supplemented with leucine or KIC and plasma cortisol was measured.
In experiment 1, sixteen female pigs weighing 20-30 kg were used. Seven days before study, catheters were surgically placed in the right atria for blood sampling. Animals were housed in individual cages during the recovery period and had free access to water. Preceding the experiment, animals were fed twice daily a basal diet (2% of body weight per feeding). The basal diet consisted of a corn-soybean mix, adequate in all minerals and vitamins and containing approximately 14% crude protein. Test meals were formulated by additions to a basal diet. Five animals received the basal diet (control); five animals received the leucine meal, which had 2% leucine added to the basal diet; and six animals received the KIC diet, which had 2% KIC (sodium salt equivalent to 1.7% free acid) added to the basel diet. Studies were begun between 0800 and 0900 h after a 24-hr fast. Basal blood samples were taken at -20, -10 and -5 min. Animals were then offered 100 g of their respective test meal (time 0). Pigs were included in the study only if they consumed the entire meal in the first 20 min. […] Plasma was separated, Trasylol (FBA Pharmaceuticals, New York, NY) added (50 ul/ml), and plasma stored at -70 C. until analyzed.
Cortisol was measured by coated tube kits (Gammacoat, Travenol-Genetech Diagnostics, Cambridge, MA). Leucine and KIC were measured by high pressure liquid chromatography. Crystalline leucine was obtained from Sigma Chemical (St. Louis, MO) and KIC-sodium was obtained from SOBAC (Paris, France). Statistical analysis of the individual pig responses was conducted on mean plasma concentrations before the meal (-20 to 0 min) and after the meal (120 to 240 min). When the overall treatment F-value was significant, differences between individual treatments were determined using the pooled SEM and a T-test.

[1] = Rumen degradation of KIC (nylon bag technique); parameters: species or system ruminants (rumen)
Excerpt: (§1) KIC pellets were made by mixing zein, ethanol, KIC, limestone, bentonite, and water in a ratio of […]. This mixture was extruded through a die of 15 mm directly into a vat of liquid nitrogen. The shattered pellets were spread out and allowed to air-dry for 2 days. The pellets were coated with zein (2% w/w) by spraying with a 30% zein solution made in 80% ethanol. The pellets again were air-dryed. Control pellets were made similarly to the KIC pellets except that the mixture was zein, limestone, ethanol, bentonite, and water in a ratio of 12:12:7.5:2.7:1. When KIC pellets were placed in the rumen (nylon bag technique), […] of the KIC added was present in the bags after 24 hr of rumen fermentation. It was estimated that uncoated KIC was 95% degraded in the rumen.
Therefore, an attempt was made to protect KIC from ruminal degradation. KIC pellets, resistant to rumen degradation, were made by mixing zein, ethanol, KIC, limestone, bentonite and water in a ratio of 8.3:7.4:5.2:3:2:1. This mixture was extruded through a die of 15 mm directly into a vat of liquid nitrogen. The shattered pellets were spread out and allowed to air-dry for two days. The dried pellets were coated with zein (2% w/w) by spraying with a 30% zein solution made in 80% ethanol. The pellets again were air-dried. Control pellets were made similar to the KIC pellets except that the mixture was zein, limestone, ethanol, bentonite and water in a ratio of 12:12:7.5:2.7:1. When KIC pellets were placed in the rumen (nylon bag technique), 45% of the KIC added was present in the bags after 36 hr of rumen digestion.

T lymphocytes = experiment: Lamb Trial 2: lymphocyte blastogenesis (3H-thymidine, phytohemaglutinin); format: cell-based, lambs (sheep); conditions: 1% KIC, * p<.05
Excerpt: The lambs used in Trial 1 consisted of medium-frame crossbred wethers and ewes weighing 26 to 31 kg. The lambs used in Trial 2 consisted of medium-framced crossbred rams weighing 18 to 25 kg. Each animal was raised as a single. The lambs were housed in a temperature controlled room in individual pens with nipple waterers. When received, the lamps were vaccinated for enterotoxemia. They were allowed to adjust to the pens and the environment for 10 days. One day before the trial began, the lambs were sheared and placed on their respective dietary treatments. The lamps were allotted blocking by weight and sex into two dietary treatment groups. Growth and feed consumption were measured bi-weekly. All lamb weights were taken after a 12 to 16 hour fast. The animals were slaughtered at 50 kg in the Iowa State University Meat laboratory facilities at Ames, Iowa. At slaughter, the lamb's internal organs and wool were weighed and sampled, loin eye area and back fat measured, and carcasses separated into fat, lean, and bone.
^(9) Lymphocyte blastogenesis measured by amount of ^3
H--thymidine incorporated per 2 hrs. of incubation in the presence of
phytohemaglutinin (a mitogen that stimulates Tlymphocyte division).

white blood cells = experiment: White blood cell number and differential, cattle (experiment 3); format: in vivo, castrated male cattle
Procedure: In experiment 3 72 castrated male cattle were allotted to 12 pens of 6 animals each. Three pens were assigned to each treatment: 0.0% KIC, 0.02% KIC, 0.07% KIC, and 0.20% KIC. Animals were fed ad libitum the respective diets for 6 weeks. At the end of the 6-233k periods, 100-ml blood samples were collected from each animal, and lymphocyte and neutrophil function were evaluated.
The basal cattle diet (experiment 3) consisted of 49% corn, 24% corn-cobs, 18% soybean meal, 7% molasses, 1.3% limestone, 0.25% dicalcium phosphate, 0.23% salt, 0.02% trace-mineral premix, and 0.11% vitamin premix. The basal diet was supplemented with w/w 0.05% control pellets, 0.04% KIC pellets, or 0.4% KIC pellets. All animals consumed ~10 kg of feed per day, resulting in ~0, 2, 7, or 20 g of Ca-KIC consumed per animal per day or 0, 0.02, 0.07, and 0.2% KIC of the total diet.
as §1
Blood was collected by jugular venapuncture into acid-citrate-dextrose anticoagulant. Lymphocytes and neutrophils were isolated, and lymphocyte blastogenesis and neutrophil function evaluated. KIC was obtained from SOBAC, Paris, France. Zein was purchased from Freeman Industries, Tuckahoe, NY. Each experiment was statistically analyzed by analysis of variance. In sheep experiments, individual animals were the experimental units, whereas pen means were analyzed in the cattle experiment.
^2 Total white blood cell number (WBC) is the cells per mm^3.

In the case of `CC(C)CC(=O)C(=O)O` [KIC, alpha-ketoisocaproate], the “decrease in cortisol concentration” value (plasma cortisol; 2% KIC, by 240-300 minutes after the meal, p<0.01) is reported as 40%, the “Plasma cortisol, Change” value (plasma cortisol; 2% in meal, control -0.09) is reported as -1.99 µg/dL and the “Plasma cortisol, Post” value (plasma cortisol; 2% in meal, pre: leucine 2.8, KIC 4.7, pooled SEM 0.49) is reported as 2.9 µg/dL. The degraded ([1]; "as much as", unprotected, read-out: KIC that may be lost by rumen destruction) was 90 to 95%, the degraded ([1]; estimated, Example IV, read-out: uncoated KIC degraded in the rumen) was 95% and the degraded ([1]; preliminary experiments, Example VI, read-out: uncoated KIC degraded in the rumen) was 95%. For the same molecule, the “LYMPHOCYTE BLASTOGENESIS: amount of 3H-thymidine incorporated per 2 hrs. of incubation” value (T lymphocytes; Trial 2, CGM diet, phytohemaglutinin (0%: 6134)) was 18102, the “LYMPHOCYTE BLASTOGENESIS: amount of 3H-thymidine incorporated per 2 hrs. of incubation” value (T lymphocytes; Trial 2, SBM diet, phytohemaglutinin (0%: 5993)) was 14625 and the “% SEG” value (white blood cells; Exp. 3, oral coated 0.02% KIC (control 28)) was 29% of Total WBC. The “% LYM” value (white blood cells; Exp. 3, oral coated 0.02% KIC (control 52)) was 63% of Total WBC, the “% EOS” value (white blood cells; Exp. 3, oral coated 0.02% KIC (control .7)) was “.9% of Total WBC” and the “% SEG” value (white blood cells; Exp. 3, oral coated 0.07% KIC (control 28)) was 24% of Total WBC. For the same molecule, the “% LYM” value (white blood cells; Exp. 3, oral coated 0.07% KIC (control 52)) was 69% of Total WBC, the “% EOS” value (white blood cells; Exp. 3, oral coated 0.07% KIC (control .7)) was “.7% of Total WBC” and the “% SEG” value (white blood cells; Exp. 3, oral coated 0.20% KIC (control 28)) was 24% of Total WBC. For the same molecule, the “% LYM” value (white blood cells; Exp. 3, oral coated 0.20% KIC (control 52)) was 52% of Total WBC and the “% EOS” value (white blood cells; Exp. 3, oral coated 0.20% KIC (control .7)) was 1.1% of Total WBC.
